# pIC50: −log10 of the molar value. Like-named read-outs stand apart in the source and are kept apart here.
# Key:
# Type in all cases: biochemical
# [1] = target: JAK2 (Homo sapiens (Human), UniProt O60674); test: JAK2 Inhibition Assay (Example C, Omnia kinase fluorescence peptide substrate assay); details: JAK2 Enzyme IC50 1 mM ATP, averaged IC50 ranges
# In short: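 4 nM JAK2 with 1 mM ATP and 10 μM Omnia Y7 peptide in 25 mM HEPES pH 7.4, 10 mM MgCl2, 0.01% Triton X-100, 1 mM DTT, 2% DMSO. Sox fluorescence (ex 360/em 485 nm) read every 50 s for 45 min; IC50 from 4-parameter fit of percent of control.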
# [2] = target: JAK3 (Homo sapiens (Human), UniProt P52333); test: JAK3 Inhibition Assay (Example D, Omnia kinase fluorescence peptide substrate assay)
# In short: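 Mixture held 2 nM JAK3, 1 mM ATP and 10 μM Omnia Y7 peptide in 25 mM HEPES pH 7.4, 10 mM MgCl2, 0.01% Triton X-100, 1 mM DTT, 2% DMSO final. Sox fluorescence (ex 360/em 485 nm) was read every 50 s for 45 min. IC50 came from a 4-parameter logistic fit of percent of control.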
# [3] = target: JAK1 (Homo sapiens (Human), UniProt P23458); test: JAK1 Inhibition Assay (Example B, Omnia kinase fluorescence peptide substrate assay)
# In short: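 Recombinant human JAK1 (12.5 nM) with 1 mM ATP and 8 μM Omnia Y12 Sox-peptide in 25 mM HEPES pH 7.4, 10 mM MgCl2, 0.01% Triton X-100, 1 mM DTT, 2% DMSO final. Phosphorylation read kinetically (ex 360/em 485 nm, 45 min); IC50 from 4-parameter fit of percent of control.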
# [4] = target: Human Tyk2 kinase domain (Homo sapiens (Human), UniProt P29597); test: Tyk2 Inhibition Assay (Example A, Omnia kinase fluorescence peptide substrate assay); details: TYK2 Enzyme IC50 1 mM ATP, averaged IC50 ranges
# In short: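 Omnia Sox-peptide kinetic fluorescence assay (ex 360/em 485 nm, read every 50 s for 45 min) with 1 nM human Tyk2 kinase domain (aa 886–1187, His tag cleaved, baculovirus-expressed), 1 mM ATP, 8 μM Omnia Y12 peptide, in 25 mM HEPES pH 7.4, 10 mM MgCl2, 0.01% Triton X-100, 1 mM DTT, 2% DMSO. IC50 from 4-parameter logistic fit of percent of control.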
# [5] = JAK1 Enzyme IC50 1 mM ATP, 1 mM ATP, averaged IC50 ranges
# Sequence of JAK1 (P23458 whole entry): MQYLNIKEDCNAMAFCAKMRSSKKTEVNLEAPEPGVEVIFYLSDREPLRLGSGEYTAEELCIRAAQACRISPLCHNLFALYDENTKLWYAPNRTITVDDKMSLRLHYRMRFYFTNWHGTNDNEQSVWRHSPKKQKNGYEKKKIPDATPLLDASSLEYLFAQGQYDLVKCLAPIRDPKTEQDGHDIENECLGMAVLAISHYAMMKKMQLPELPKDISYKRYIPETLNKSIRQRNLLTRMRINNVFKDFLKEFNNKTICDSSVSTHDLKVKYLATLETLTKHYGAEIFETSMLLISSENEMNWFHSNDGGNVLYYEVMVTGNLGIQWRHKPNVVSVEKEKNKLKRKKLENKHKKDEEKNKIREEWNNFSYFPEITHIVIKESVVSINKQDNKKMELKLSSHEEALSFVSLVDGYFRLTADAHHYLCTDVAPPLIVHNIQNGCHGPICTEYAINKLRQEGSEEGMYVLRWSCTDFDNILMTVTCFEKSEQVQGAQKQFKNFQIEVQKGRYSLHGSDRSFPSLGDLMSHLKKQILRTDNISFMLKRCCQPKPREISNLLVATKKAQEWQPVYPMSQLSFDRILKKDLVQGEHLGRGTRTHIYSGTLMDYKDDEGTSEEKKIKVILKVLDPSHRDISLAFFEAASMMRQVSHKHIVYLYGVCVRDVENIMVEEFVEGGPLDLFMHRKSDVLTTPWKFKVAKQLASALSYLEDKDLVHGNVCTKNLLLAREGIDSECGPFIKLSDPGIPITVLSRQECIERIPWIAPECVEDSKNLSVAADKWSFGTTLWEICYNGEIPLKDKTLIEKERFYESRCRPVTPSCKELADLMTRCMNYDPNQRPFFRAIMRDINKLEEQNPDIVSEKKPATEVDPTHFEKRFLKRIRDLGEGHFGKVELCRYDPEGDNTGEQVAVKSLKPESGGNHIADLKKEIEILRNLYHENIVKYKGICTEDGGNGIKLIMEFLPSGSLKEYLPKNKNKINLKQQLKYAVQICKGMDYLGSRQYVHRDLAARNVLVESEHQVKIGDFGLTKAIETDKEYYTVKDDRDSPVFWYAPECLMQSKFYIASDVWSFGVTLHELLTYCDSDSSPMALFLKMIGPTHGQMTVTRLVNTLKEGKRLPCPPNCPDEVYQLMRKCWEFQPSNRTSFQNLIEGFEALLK
# Sequence of Human Tyk2 kinase domain (P29597 886-1187): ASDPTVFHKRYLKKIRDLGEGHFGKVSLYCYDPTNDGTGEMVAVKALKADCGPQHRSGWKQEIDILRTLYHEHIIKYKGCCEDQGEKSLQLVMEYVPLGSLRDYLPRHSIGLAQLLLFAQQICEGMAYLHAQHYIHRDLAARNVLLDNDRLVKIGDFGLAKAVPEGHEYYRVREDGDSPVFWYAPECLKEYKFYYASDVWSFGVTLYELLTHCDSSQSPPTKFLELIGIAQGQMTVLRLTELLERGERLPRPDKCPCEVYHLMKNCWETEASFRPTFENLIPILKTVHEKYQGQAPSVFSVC
# Sequence of JAK3 (P52333 whole entry): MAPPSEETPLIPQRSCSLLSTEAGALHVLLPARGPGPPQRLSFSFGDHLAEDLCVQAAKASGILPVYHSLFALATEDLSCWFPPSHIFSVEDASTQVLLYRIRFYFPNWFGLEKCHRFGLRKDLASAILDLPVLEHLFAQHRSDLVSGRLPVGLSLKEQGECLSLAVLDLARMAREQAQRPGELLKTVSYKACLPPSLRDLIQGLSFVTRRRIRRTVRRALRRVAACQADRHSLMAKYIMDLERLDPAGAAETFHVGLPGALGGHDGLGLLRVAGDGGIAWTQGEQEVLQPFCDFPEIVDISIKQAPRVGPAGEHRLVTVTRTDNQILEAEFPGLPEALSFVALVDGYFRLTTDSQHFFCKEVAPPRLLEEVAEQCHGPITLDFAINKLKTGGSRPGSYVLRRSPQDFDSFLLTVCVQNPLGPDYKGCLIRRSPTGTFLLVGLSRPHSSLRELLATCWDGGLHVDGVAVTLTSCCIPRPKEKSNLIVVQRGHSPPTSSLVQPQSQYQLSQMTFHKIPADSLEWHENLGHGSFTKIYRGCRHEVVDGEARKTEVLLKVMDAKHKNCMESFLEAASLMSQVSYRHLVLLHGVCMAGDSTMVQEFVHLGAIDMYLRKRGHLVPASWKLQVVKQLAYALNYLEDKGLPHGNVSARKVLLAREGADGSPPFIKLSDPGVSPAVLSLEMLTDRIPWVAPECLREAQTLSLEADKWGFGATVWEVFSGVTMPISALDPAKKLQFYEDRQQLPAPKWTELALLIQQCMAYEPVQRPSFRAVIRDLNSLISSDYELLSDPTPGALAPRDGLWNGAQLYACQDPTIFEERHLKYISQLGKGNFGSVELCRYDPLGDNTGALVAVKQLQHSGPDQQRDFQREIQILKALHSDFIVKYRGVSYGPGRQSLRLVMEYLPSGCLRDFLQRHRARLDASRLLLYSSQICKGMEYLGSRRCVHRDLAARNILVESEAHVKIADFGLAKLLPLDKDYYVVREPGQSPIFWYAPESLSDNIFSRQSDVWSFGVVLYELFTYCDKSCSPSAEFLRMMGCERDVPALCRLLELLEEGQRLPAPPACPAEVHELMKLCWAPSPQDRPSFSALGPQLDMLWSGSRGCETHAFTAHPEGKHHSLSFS
# Sequence of JAK2 (O60674 whole entry): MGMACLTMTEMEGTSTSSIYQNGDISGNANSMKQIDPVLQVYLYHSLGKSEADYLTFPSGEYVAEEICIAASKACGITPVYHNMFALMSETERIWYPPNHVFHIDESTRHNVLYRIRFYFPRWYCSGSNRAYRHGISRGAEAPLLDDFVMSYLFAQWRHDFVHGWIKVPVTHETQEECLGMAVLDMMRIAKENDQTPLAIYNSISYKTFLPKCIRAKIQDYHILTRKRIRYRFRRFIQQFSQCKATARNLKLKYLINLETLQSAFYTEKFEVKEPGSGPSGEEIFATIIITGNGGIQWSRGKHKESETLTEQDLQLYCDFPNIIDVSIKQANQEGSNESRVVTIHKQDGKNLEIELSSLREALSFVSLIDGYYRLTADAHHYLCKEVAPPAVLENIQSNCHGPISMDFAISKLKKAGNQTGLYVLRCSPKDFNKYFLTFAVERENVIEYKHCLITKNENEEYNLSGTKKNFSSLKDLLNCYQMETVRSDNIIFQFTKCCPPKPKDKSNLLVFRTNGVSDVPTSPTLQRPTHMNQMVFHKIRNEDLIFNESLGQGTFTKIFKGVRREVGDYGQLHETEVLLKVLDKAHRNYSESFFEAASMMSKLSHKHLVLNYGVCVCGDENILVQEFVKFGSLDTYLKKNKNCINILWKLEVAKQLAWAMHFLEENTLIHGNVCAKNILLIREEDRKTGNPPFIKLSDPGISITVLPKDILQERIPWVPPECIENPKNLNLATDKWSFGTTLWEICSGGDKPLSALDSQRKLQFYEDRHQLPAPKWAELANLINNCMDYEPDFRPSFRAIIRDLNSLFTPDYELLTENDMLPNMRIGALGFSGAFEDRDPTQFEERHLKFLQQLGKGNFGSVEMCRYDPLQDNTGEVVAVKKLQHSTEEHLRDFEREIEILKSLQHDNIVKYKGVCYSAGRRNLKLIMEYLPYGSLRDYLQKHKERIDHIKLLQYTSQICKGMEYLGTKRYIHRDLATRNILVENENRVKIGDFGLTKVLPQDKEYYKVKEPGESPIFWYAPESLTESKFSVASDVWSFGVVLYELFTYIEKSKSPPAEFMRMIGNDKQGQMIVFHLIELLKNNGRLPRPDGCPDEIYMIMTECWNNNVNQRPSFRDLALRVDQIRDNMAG
pIC50 [1],pIC50 [2],pIC50 [3],pIC50 [4],"pIC50 [3, 5]",SMILES
7.00 to 8.00,5.00 to 6.00,,7.00 to 8.00,6.00 to 7.00,"CCC(CC)n1cc(-c2nc(-c3cnn([C@H]4C[C@H](O)C4)c3)cn3nccc23)cn1 [Example 161, trans-3-(4-(4-(1-(pentan-3-yl)-1H-pyrazol-4-yl)pyrazolo[1,5-a]pyrazin-6-yl)-1H-pyrazol-1-yl)cyclobutanol]"
7.00 to 8.00,5.00 to 6.00,,6.00 to 7.00,5.00 to 6.00,"CCC(CC)n1cc(-c2nc(-c3cnn(C[C@@H](O)CNC)c3)cn3nccc23)cn1 [Example 102, (S)-1-(methylamino)-3-(4-(4-(1-(pentan-3-yl)-1H-pyrazol-4-yl)pyrazolo[1,5-a]pyrazin-6-yl)-1H-pyrazol-1-yl)propan-2-ol]"
7.00 to 8.00,5.00 to 6.00,5.00 to 6.00,7.00 to 8.00,,"CCC(CC)n1cc(-c2nc(-c3cnn(CCN4CCC(CO)CC4)c3)cn3nccc23)cn1 [Example 146, (1-(2-(4-(4-(1-(pentan-3-yl)-1H-pyrazol-4-yl)pyrazolo[1,5-a]pyrazin-6-yl)-1H-pyrazol-1-yl)ethyl)piperidin-4-yl)methanol]"
6.00 to 7.00,5.00 to 6.00,6.00 to 7.00,6.00 to 7.00,,"CCC(CC)n1cc(-c2nc(-c3cnn(CC(C)(C)O)c3)cn3nccc23)cn1 [Example 117, 2-methyl-1-(4-(4-(1-(pentan-3-yl)-1H-pyrazol-4-yl)pyrazolo[1,5-a]pyrazin-6-yl)-1H-pyrazol-1-yl)propan-2-ol]"
7.00 to 8.00,5.00 to 6.00,6.00 to 7.00,7.00 to 8.00,,"CCC(CC)n1cc(-c2nc(-c3cnn(CCS(=O)(=O)N(C)C)c3)cn3nccc23)cn1 [Example 23, N,N-dimethyl-2-(4-(4-(1-(pentan-3-yl)-1H-pyrazol-4-yl)pyrazolo[1,5-a]pyrazin-6-yl)-1H-pyrazol-1-yl)ethanesulfonamide]"
6.00 to 7.00,5.00 to 6.00,5.00 to 6.00,6.00 to 7.00,,"CCC(CC)n1cc(-c2nc(-c3cnn(CCCN(C)C)c3)cn3nccc23)cn1 [Example 12, N,N-dimethyl-3-(4-(4-(1-(pentan-3-yl)-1H-pyrazol-4-yl)pyrazolo[1,5-a]pyrazin-6-yl)-1H-pyrazol-1-yl)propan-1-amine]"
7.00 to 8.00,5.00 to 6.00,,7.00 to 8.00,7.00 to 8.00,"CCC(CC)n1cc(-c2nc(-c3cnn(C[C@H](C)CO)c3)cn3nccc23)cn1 [Example 15, (S)-2-methyl-3-(4-(4-(1-(pentan-3-yl)-1H-pyrazol-4-yl)pyrazolo[1,5-a]pyrazin-6-yl)-1H-pyrazol-1-yl)propan-1-ol]"
6.00 to 7.00,5.00 to 6.00,5.00 to 6.00,6.00 to 7.00,,"CCC(CC)n1cc(-c2nc(-c3cnn(C[C@@H](CN)OC)c3)cn3nccc23)cn1 (single isomer, unassigned) [Example 148]"
6.00 to 7.00,5.00 to 6.00,,6.00 to 7.00,5.00 to 6.00,"C[C@@H]1CC[C@@H]1n1cc(-c2nc(-c3cnn(C[C@@H](O)CO)c3)cn3nccc23)cn1 [Example 217, (R)-3-(4-(4-(1-(cis-2-methylcyclobutyl)-1H-pyrazol-4-yl)pyrazolo[1,5-a]pyrazin-6-yl)-1H-pyrazol-1-yl)propane-1,2-diol]"

SMILES,pIC50 [1],pIC50 [2],pIC50 [3],pIC50 [4],"pIC50 [3, 5]"
"CCC(CC)n1cc(-c2nc(-c3cnn(C[C@@H]4CNCCO4)c3)cn3nccc23)cn1 [Example 127, (S)-2-((4-(4-(1-(pentan-3-yl)-1H-pyrazol-4-yl)pyrazolo[1,5-a]pyrazin-6-yl)-1H-pyrazol-1-yl)methyl)morpholine trifluoroacetic acid]",6.00 to 7.00,5.00 to 6.00,5.00 to 6.00,6.00 to 7.00,
"CCC(C)n1cc(-c2nc(-c3cnn(C[C@@H](O)CO)c3)cn3nccc23)cn1 (stereo partly drawn) [Example 67, (2R)-3-(4-(4-(1-(sec-butyl)-1H-pyrazol-4-yl)pyrazolo[1,5-a]pyrazin-6-yl)-1H-pyrazol-1-yl)propane-1,2-diol]",7.00 to 8.00,6.00 to 7.00,,6.00 to 7.00,6.00 to 7.00

# Reference: patent US10189845B2, “4,6-substituted-pyrazolo[1,5-a]pyrazines as janus kinase inhibitors” (ARRAY BIOPHARMA INC., priority 2014, dated 2019)
